Reference: patent US20190282569A1, “STABLE PHARMACEUTICAL COMPOSITION” (ASTELLAS PHARMA INC., priority 2016, published 2019)

Assays:
[1] = Stability of the drug substance itself; type: physicochemical; conditions: drug substance alone, without pharmaceutical additives
[2] = system: epidermal growth factor receptor (EGFR) mutant kinase; conditions: disclosed in Patent literature 1 (WO 2013/108754); cited from earlier work

| Structure (SMILES) | stability of the drug itself (in words) [1] | inhibitory action on an epidermal growth factor receptor (EGFR) mutant kinase [2] |
| --- | --- | --- |
| C=CC(=O)N1CC[C@@H](Oc2nc(Nc3ccc(N4CCC(N5CCN(C)CC5)CC4)cc3)c(C(N)=O)nc2CC)C1.CS(=O)(=O)O [compound A monomethanesulfonate, 5-{[(3R)-1-acryloylpyrrolidin-3-yl]oxy}-6-ethyl-3-({4-[4-(4-methylpiperazin-1-yl)piperidin-1-yl]phenyl}amino)-pyrazine-2-carboxamide monomethanesulfonate] | stable | – |
| C=CC(=O)N1CC[C@@H](Oc2nc(Nc3ccc(N4CCC(N5CCN(C)CC5)CC4)cc3)c(C(N)=O)nc2CC)C1 [compound A, 5-{[(3R)-1-Acryloylpyrrolidin-3-yl]oxy}-6-ethyl-3-({4-[4-(4-methylpiperazin-1-yl)piperidin-1-yl]phenyl}amino)-pyrazine-2-carboxamide] | – | confirmed |
